Reference: patent US10323022B2, “Pyrrolidinyl urea, pyrrolidinyl thiourea and pyrrolidinyl guanidine compounds as TrkA kinase inhibitors” (Array BioPharma Inc., priority 2011, dated 2019)
Where a name gives a salt, the structure may show the parent alone.

The compounds below were run against TrkA (Homo sapiens (Human), UniProt P04629) (assay: TrkA Omnia Assay). Settings: averaged IC50; 20 nM enzyme, 500 μM ATP, 10 μM peptide substrate.
Assay type: biochemical
How it was run: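 Recombinant TrkA (20 nM) preincubated 10 min at ambient temperature with compound, then Omnia Tyr Peptide #4 (10 μM) and ATP (500 μM) added in 25 mM MOPS pH 7.5, 5 mM MgCl2, 0.005% Triton X-100. Fluorescence (ex 360/em 485 nm) followed continuously for 70 min; IC50 from initial rates by 4- or 5-parameter logistic fit.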

Sequence of TrkA (P04629 33-796): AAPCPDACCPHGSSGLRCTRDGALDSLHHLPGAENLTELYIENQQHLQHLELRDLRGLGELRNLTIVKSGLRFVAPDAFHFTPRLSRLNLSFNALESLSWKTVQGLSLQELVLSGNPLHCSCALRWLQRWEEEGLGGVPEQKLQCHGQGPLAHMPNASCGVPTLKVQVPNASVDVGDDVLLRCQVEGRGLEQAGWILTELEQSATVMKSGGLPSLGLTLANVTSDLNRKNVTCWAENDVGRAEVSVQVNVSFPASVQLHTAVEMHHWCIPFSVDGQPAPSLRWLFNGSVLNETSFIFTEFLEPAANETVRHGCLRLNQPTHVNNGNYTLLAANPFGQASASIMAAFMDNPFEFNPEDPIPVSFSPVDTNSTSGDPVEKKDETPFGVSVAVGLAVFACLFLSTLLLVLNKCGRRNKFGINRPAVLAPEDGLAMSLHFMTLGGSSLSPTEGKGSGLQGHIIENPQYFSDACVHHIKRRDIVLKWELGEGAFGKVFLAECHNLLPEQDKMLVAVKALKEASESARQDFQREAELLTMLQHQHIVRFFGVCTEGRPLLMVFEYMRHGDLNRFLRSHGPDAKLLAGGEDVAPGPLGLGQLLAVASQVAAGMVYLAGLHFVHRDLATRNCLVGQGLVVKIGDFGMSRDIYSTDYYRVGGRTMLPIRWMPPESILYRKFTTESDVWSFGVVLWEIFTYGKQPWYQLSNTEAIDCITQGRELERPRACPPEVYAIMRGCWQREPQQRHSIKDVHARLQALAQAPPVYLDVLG

Row | Structure (SMILES) | IC50
1 | COc1ncccc1N1C[C@@H](NC(=O)Nc2c(Br)c(-c3cnn(C)c3)nn2-c2ccccc2)[C@H](c2ccccc2)C1 [Example 246, 1-(4-bromo-1′-methyl-1-phenyl-1H,1′H-[3,4′-bipyrazol]-5-yl)-3-((3S,4R)-1-(2-methoxypyridin-3-yl)-4-phenylpyrrolidin-3-yl)urea] | < 0.1 µM
2 | COc1ncccc1N1C[C@@H](NC(=O)Nc2c(Br)c(-c3ccccc3)nn2-c2ccccc2)[C@H](c2ccccc2)C1 [Example 247, 1-(4-bromo-1,3-diphenyl-1H-pyrazol-5-yl)-3-((3S,4R)-1-(2-methoxypyridin-3-yl)-4-phenylpyrrolidin-3-yl)urea] | 0.1 to 1 µM
3 | O=C(Nc1c2c(nn1-c1ccccc1)CCC2)N[C@@H]1CN(Cc2csnn2)C[C@H]1c1ccc(F)c(F)c1 [Example 248, 1-((3S,4R)-1-((1,2,3-thiadiazol-4-yl)methyl)-4-(3,4-difluorophenyl)pyrrolidin-3-yl)-3-(2-phenyl-2,4,5,6-tetrahydrocyclopenta[c]pyrazol-3-yl)urea] | < 0.1 µM
4 | CCOc1nn(-c2ccccc2)c(NC(=O)N[C@@H]2CN(Cc3csnn3)C[C@H]2c2ccc(F)c(F)c2)c1C [Example 249, 1-((3S,4R)-1-((1,2,3-thiadiazol-4-yl)methyl)-4-(3,4-difluorophenyl)pyrrolidin-3-yl)-3-(3-ethoxy-4-methyl-1-phenyl-1H-pyrazol-5-yl)urea] | < 0.1 µM
5 | Cc1c(OCC#N)nn(-c2ccccc2)c1NC(=O)N[C@@H]1CN(Cc2csnn2)C[C@H]1c1ccc(F)c(F)c1 [Example 250, 1-((3S,4R)-1-((1,2,3-thiadiazol-4-yl)methyl)-4-(3,4-difluorophenyl)pyrrolidin-3-yl)-3-(3-(cyanomethoxy)-4-methyl-1-phenyl-1H-pyrazol-5-yl)urea] | < 0.1 µM
6 | Cc1c(-c2cnn(C)c2)nn(-c2ccccc2)c1NC(=O)N[C@@H]1CN(Cc2csnn2)C[C@H]1c1ccc(F)c(F)c1 [Example 251, 1-((3S,4R)-1-((1,2,3-thiadiazol-4-yl)methyl)-4-(3,4-difluorophenyl)pyrrolidin-3-yl)-3-(1′,4-dimethyl-1-phenyl-1H, 1′H-3,4′-bipyrazol-5-yl)urea] | < 0.1 µM
7 | Cc1c(-c2cn(C)cn2)nn(-c2ccccc2)c1NC(=O)N[C@@H]1CN(Cc2csnn2)C[C@H]1c1ccc(F)c(F)c1 [Example 252, 1-((3S,4R)-1-((1,2,3-thiadiazol-4-yl)methyl)-4-(3,4-difluorophenyl)pyrrolidin-3-yl)-3-(4-methyl-3-(1-methyl-1H-imidazol-4-yl)-1-phenyl-1H-pyrazol-5-yl)urea] | < 0.1 µM
8 | Cn1cc(CN2C[C@@H](NC(=O)Nc3c4c(nn3-c3ccccc3)CCC4)[C@H](c3ccc(F)c(F)c3)C2)nn1 [Example 253, 1-((3S,4R)-4-(3,4-difluorophenyl)-1-((1-methyl-1H-1,2,3-triazol-4-yl)methyl)pyrrolidin-3-yl)-3-(2-phenyl-2,4,5,6-tetrahydrocyclopenta[c]pyrazol-3-yl)urea] | 0.1 to 1 µM
9 | CCOc1nn(-c2ccccc2)c(NC(=O)N[C@@H]2CN(C(COC)COC)C[C@H]2c2ccc(F)c(F)c2)c1C [Example 254, 1-((3S,4R)-4-(3,4-difluorophenyl)-1-(1,3-dimethoxypropan-2-yl)pyrrolidin-3-yl)-3-(3-ethoxy-4-methyl-1-phenyl-1H-pyrazol-5-yl)urea] | < 0.1 µM
10 | CCOc1nn(-c2ccccc2)c(NC(=O)N[C@@H]2CN(C(C)COC)C[C@H]2c2ccc(F)c(F)c2)c1C (stereo partly drawn) [Example 255, 1-((3S,4R)-4-(3,4-difluorophenyl)-1-(1-methoxypropan-2-yl)pyrrolidin-3-yl)-3-(3-ethoxy-4-methyl-1-phenyl-1H-pyrazol-5-yl)urea] | < 0.1 µM
11 | COCC(C(=O)OC)N1C[C@@H](NC(=O)Nc2c3c(nn2-c2ccccc2)CCC3)[C@H](c2ccc(F)c(F)c2)C1 (stereo partly drawn) [Example 259, methyl2-((3R,4S)-3-(3,4-difluorophenyl)-4-(3-(2-phenyl-2,4,5,6-tetrahydrocyclopenta[c]pyrazol-3-yl)ureido)pyrrolidin-1-yl)-3-methoxypropanoate] | < 0.1 µM
12 | COCC(CO)N1C[C@@H](NC(=O)Nc2c3c(nn2-c2ccccc2)CCC3)[C@H](c2ccc(F)c(F)c2)C1 (stereo partly drawn) [Example 260, 1-((3S,4R)-4-(3,4-difluorophenyl)-1-(1-hydroxy-3-methoxypropan-2-yl)pyrrolidin-3-yl)-3-(2-phenyl-2,4,5,6-tetrahydrocyclopenta[c]pyrazol-3-yl)urea] | < 0.1 µM

Next, values leading:

Row | IC50 | Structure (SMILES)
13 | 0.1 to 1 µM | COCC(N1C[C@@H](NC(=O)Nc2c3c(nn2-c2ccccc2)CCC3)[C@H](c2ccc(F)c(F)c2)C1)C(C)(C)O (stereo partly drawn) [Example 261, 1-((3S,4R)-4-(3,4-difluorophenyl)-1-(3-hydroxy-1-methoxy-3-methylbutan-2-yl)pyrrolidin-3-yl)-3-(2-phenyl-2,4,5,6-tetrahydrocyclopenta[c]pyrazol-3-yl)urea]
14 | 1 to 10 µM | COCC(C(=O)O)N1C[C@@H](NC(=O)Nc2c3c(nn2-c2ccccc2)CCC3)[C@H](c2ccc(F)c(F)c2)C1 (stereo partly drawn) [Example 262, 2-((3R,4S)-3-(3,4-difluorophenyl)-4-(3-(2-phenyl-2,4,5,6-tetrahydrocyclopenta[c]pyrazol-3-yl)ureido)pyrrolidin-1-yl)-3-methoxypropanoic acid hydrochloride]
15 | < 0.1 µM | CCOc1nn(-c2ccccc2)c(NC(=O)N[C@@H]2CN(C(CO)COC)C[C@H]2c2ccc(F)c(F)c2)c1C (stereo partly drawn) [Example 263, 1-((3S,4R)-4-(3,4-difluorophenyl)-1-(1-hydroxy-3-methoxypropan-2-yl)pyrrolidin-3-yl)-3-(3-ethoxy-4-methyl-1-phenyl-1H-pyrazol-5-yl)urea]
16 | < 0.1 µM | COCC(CO)N1C[C@@H](NC(=O)Nc2c(Cl)c(-c3cnn(C)c3)nn2-c2ccccc2)[C@H](c2ccc(F)c(F)c2)C1 (stereo partly drawn) [Example 264]
17 | < 0.1 µM | Cc1nn(-c2ccccc2)c(NC(=O)N[C@H]2CN(CC(F)(F)F)C[C@@H]2c2ccccc2)c1C [Example 265, 1-(3,4-dimethyl-1-phenyl-1H-pyrazol-5-yl)-3-((3R,4S)-4-phenyl-1-(2,2,2-trifluoroethyl)pyrrolidin-3-yl)urea]
18 | < 0.1 µM | Cc1c(OCCF)nn(-c2ccccc2)c1NC(=O)N[C@H]1CN(CC(F)(F)F)C[C@@H]1c1ccccc1 [Example 266, 1-(3-(2-fluoroethoxy)-4-methyl-1-phenyl-1H-pyrazol-5-yl)-3-((3R,4S)-4-phenyl-1-(2,2,2-trifluoroethyl)pyrrolidin-3-yl)urea]
19 | < 0.1 µM | CCOc1nn(-c2ccccc2)c(NC(=O)N[C@H]2CN(CC(F)(F)F)C[C@@H]2c2ccccc2)c1C [Example 267, 1-(3-ethoxy-4-methyl-1-phenyl-1H-pyrazol-5-yl)-3-((3R,4S)-4-phenyl-1-(2,2,2-trifluoroethyl)pyrrolidin-3-yl)urea]
20 | < 0.1 µM | Cc1c(OCC#N)nn(-c2ccccc2)c1NC(=O)N[C@H]1CN(CC(F)(F)F)C[C@@H]1c1ccccc1 [Example 268, 1-(3-(cyanomethoxy)-4-methyl-1-phenyl-1H-pyrazol-5-yl)-3-((3R,4S)-4-phenyl-1-(2,2,2-trifluoroethyl)pyrrolidin-3-yl)urea]
21 | < 0.1 µM | Cc1c(-c2cnn(C)c2)nn(-c2ccccc2)c1NC(=O)N[C@H]1CN(CC(F)(F)F)C[C@@H]1c1ccccc1 [Example 269, 1-(1′,4-dimethyl-1-phenyl-1H,1′H-3,4′-bipyrazol-5-yl)-3-((3R,4S)-4-phenyl-1-(2,2,2-trifluoroethyl)pyrrolidin-3-yl)urea]
